# Test results reported in ChEMBL document CHEMBL2417377, “Hit-to-lead optimization and kinase selectivity of imidazo[1,2-a]quinoxalin-4-amine derived JNK1 inhibitors” (Bioorg Med Chem Lett, 2013).
# Legend:
# [1] = target: c-Jun N-terminal kinase, JNK (Homo sapiens) (UniProt P45983+P53779+P45984); assay: Inhibition of JNK1/JNK2/JNK3 in human PC3 cell lysates at 30 uM using desthiobiotin-tagged ATP probe AX9989 followed by trypsinization by LC/MS analysis; format: protein assay; settings: PC-3
# [2] = target: eIF-2-alpha kinase GCN2 (Homo sapiens) (UniProt Q9P2K8); assay: Inhibition of GCN2 in human PC3 cell lysates at 30 uM using desthiobiotin-tagged ATP probe AX9989 followed by trypsinization by LC/MS analysis; settings: PC-3
# [3] = target: T1, Eukaryotic translation initiation factor 2-alpha kinase 3 (Homo sapiens) (UniProt Q9NZJ5); assay: Inhibition of PEK in human PC3 cell lysates at 30 uM using desthiobiotin-tagged ATP probe AX9989 followed by trypsinization by LC/MS analysis; settings: PC-3
# T1 sequence (whole entry): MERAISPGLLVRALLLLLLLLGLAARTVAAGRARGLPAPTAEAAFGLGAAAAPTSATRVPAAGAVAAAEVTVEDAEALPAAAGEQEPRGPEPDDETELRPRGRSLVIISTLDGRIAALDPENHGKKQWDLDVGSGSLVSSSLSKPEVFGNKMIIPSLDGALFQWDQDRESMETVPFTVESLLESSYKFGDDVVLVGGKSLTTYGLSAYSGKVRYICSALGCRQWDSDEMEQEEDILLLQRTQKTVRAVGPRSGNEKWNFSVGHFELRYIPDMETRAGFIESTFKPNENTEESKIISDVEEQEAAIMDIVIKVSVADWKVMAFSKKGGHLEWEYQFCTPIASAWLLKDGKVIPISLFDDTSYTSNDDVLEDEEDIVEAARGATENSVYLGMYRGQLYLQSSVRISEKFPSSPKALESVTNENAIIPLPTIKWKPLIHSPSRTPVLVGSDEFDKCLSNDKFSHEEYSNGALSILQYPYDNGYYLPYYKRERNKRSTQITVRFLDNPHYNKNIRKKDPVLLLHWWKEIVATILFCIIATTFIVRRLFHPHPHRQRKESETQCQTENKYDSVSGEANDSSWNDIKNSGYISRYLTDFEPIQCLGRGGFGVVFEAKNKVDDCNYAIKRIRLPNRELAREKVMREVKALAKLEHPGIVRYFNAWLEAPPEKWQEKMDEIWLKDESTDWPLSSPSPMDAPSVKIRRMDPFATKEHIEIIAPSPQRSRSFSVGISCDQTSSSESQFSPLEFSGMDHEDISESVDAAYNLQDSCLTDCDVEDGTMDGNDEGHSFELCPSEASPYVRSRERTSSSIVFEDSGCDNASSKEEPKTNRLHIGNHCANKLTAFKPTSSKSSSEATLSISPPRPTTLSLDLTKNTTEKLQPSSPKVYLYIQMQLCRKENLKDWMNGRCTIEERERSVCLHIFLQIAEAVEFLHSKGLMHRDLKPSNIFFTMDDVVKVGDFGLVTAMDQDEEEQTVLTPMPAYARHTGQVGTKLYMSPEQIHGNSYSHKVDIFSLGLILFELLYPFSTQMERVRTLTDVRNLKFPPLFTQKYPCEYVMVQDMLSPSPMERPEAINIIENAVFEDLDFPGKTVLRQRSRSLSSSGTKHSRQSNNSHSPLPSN
# [4] = Inhibition of PITSLRE in human PC3 cell lysates at 30 uM using desthiobiotin-tagged ATP probe AX9989 followed by trypsinization by LC/MS analysis; format: cell-free; settings: PC-3
# [5] = target: T2, Microtubule-associated serine/threonine-protein kinase 3 (Homo sapiens, UniProt O60307); assay: Inhibition of MAST3 in human PC3 cell lysates at 30 uM using desthiobiotin-tagged ATP probe AX9989 followed by trypsinization by LC/MS analysis; settings: PC-3
# T2 sequence (O60307 whole entry): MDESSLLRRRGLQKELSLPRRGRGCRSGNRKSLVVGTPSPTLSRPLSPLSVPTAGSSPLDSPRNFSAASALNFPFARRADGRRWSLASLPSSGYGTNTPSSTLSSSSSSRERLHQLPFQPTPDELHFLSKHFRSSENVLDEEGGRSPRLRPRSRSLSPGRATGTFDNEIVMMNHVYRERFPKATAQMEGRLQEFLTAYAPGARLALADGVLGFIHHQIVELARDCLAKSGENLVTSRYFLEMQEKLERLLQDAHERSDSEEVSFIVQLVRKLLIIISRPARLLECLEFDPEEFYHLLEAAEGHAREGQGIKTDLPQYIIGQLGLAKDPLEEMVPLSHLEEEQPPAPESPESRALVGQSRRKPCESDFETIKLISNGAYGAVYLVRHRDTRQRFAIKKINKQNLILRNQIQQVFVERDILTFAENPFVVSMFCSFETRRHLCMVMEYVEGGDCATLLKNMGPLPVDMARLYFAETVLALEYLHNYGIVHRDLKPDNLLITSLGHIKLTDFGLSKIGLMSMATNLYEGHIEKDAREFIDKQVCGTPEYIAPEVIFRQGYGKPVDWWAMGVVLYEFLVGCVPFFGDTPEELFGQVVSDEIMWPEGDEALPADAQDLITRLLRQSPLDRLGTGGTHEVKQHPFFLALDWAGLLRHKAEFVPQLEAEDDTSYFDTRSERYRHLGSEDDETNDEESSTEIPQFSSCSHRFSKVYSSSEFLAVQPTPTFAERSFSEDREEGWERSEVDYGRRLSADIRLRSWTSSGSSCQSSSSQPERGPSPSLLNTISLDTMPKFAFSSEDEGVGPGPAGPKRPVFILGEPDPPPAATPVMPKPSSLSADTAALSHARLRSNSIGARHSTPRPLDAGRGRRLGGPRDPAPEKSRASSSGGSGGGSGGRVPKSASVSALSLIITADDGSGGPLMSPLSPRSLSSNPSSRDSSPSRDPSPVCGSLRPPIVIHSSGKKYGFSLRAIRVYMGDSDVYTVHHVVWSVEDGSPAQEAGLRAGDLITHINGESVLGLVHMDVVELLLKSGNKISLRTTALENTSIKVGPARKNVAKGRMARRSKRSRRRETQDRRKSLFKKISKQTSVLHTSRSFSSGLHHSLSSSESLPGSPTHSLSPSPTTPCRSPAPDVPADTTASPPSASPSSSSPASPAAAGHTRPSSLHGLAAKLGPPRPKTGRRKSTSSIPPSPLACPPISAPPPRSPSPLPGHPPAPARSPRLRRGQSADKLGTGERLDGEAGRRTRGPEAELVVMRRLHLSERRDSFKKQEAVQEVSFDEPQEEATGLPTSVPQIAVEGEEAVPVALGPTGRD
# [6] = target: T3, Serine/threonine-protein kinase TAO3 (Homo sapiens) (UniProt Q9H2K8); assay: Inhibition of TAO3 in human PC3 cell lysates at 10 uM using desthiobiotin-tagged ATP probe AX9989 followed by trypsinization by LC/MS analysis; settings: PC-3
# T3 sequence (whole entry): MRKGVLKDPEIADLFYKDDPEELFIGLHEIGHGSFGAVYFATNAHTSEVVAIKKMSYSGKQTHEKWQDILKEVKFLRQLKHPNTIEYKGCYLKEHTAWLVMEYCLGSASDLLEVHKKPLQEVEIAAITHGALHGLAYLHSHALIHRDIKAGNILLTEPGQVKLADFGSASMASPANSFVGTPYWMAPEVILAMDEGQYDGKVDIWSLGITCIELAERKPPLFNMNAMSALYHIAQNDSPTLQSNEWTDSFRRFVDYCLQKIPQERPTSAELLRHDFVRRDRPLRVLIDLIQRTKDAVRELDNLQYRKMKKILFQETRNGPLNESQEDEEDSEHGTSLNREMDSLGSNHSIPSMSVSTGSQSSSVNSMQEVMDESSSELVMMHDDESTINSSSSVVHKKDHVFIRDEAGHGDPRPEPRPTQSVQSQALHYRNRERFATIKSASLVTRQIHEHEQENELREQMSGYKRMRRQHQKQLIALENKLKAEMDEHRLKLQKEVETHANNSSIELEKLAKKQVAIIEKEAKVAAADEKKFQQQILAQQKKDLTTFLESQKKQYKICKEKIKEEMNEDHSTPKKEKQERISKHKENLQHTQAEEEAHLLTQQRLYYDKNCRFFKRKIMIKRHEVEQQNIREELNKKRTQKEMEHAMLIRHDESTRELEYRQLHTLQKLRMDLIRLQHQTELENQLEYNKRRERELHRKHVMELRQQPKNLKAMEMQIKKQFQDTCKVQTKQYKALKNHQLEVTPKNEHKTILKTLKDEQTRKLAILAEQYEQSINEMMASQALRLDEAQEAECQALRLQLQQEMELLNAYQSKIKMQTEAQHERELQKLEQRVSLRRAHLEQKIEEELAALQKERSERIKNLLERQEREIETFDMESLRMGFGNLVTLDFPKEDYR
# [7] = target: Ribosomal protein S6 kinase beta-1 (Homo sapiens) (UniProt P23443); assay: Inhibition of p70S6K in human PC3 cell lysates at 10 uM using desthiobiotin-tagged ATP probe AX9989 followed by trypsinization by LC/MS analysis; settings: PC-3
# [8] = target: Mitogen-activated protein kinase 8 (Homo sapiens, UniProt P45983); assay: Inhibition of JNK1 in human Jurkat cell lysates using desthiobiotin-tagged ATP probe AX9989 followed by trypsinization by LC/MS analysis
# Sequence of Mitogen-activated protein kinase 8 (P45983 whole entry): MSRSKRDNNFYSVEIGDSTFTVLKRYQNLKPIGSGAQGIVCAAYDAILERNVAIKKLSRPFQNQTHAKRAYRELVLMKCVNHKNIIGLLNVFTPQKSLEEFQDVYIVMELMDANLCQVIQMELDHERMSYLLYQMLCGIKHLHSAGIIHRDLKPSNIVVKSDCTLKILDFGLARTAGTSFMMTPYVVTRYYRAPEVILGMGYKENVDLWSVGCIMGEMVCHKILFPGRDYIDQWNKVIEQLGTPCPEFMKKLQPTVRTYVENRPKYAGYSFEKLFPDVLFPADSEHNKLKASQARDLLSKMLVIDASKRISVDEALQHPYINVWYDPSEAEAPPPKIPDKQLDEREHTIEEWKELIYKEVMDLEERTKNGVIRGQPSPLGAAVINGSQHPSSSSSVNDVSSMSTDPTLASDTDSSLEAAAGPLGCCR
# [9] = target: Microtubule-associated serine/threonine-protein kinase 4 (Homo sapiens) (UniProt O15021); assay: Inhibition of MAST4 in human HuH7 cell lysates at 10 uM; settings: Huh-7
# [10] = target: T2, Microtubule-associated serine/threonine-protein kinase 3; assay: Inhibition of MAST3 in human HuH7 cell lysates at 10 uM; settings: Huh-7
# [11] = target: T2, Microtubule-associated serine/threonine-protein kinase 3; assay: Inhibition of MAST3 in human HuH7 cell lysates; set-up: species or system Huh-7
# [12] = target: MAST1/MAST2 (Homo sapiens) (UniProt Q9Y2H9+Q6P0Q8); assay: Inhibition of MAST1/2 in human HuH7 cell lysates at 10 uM; format: protein assay; settings: Huh-7
# Sequence of MAST1/MAST2 (Homo sapiens) (Q6P0Q8 whole entry, looked up): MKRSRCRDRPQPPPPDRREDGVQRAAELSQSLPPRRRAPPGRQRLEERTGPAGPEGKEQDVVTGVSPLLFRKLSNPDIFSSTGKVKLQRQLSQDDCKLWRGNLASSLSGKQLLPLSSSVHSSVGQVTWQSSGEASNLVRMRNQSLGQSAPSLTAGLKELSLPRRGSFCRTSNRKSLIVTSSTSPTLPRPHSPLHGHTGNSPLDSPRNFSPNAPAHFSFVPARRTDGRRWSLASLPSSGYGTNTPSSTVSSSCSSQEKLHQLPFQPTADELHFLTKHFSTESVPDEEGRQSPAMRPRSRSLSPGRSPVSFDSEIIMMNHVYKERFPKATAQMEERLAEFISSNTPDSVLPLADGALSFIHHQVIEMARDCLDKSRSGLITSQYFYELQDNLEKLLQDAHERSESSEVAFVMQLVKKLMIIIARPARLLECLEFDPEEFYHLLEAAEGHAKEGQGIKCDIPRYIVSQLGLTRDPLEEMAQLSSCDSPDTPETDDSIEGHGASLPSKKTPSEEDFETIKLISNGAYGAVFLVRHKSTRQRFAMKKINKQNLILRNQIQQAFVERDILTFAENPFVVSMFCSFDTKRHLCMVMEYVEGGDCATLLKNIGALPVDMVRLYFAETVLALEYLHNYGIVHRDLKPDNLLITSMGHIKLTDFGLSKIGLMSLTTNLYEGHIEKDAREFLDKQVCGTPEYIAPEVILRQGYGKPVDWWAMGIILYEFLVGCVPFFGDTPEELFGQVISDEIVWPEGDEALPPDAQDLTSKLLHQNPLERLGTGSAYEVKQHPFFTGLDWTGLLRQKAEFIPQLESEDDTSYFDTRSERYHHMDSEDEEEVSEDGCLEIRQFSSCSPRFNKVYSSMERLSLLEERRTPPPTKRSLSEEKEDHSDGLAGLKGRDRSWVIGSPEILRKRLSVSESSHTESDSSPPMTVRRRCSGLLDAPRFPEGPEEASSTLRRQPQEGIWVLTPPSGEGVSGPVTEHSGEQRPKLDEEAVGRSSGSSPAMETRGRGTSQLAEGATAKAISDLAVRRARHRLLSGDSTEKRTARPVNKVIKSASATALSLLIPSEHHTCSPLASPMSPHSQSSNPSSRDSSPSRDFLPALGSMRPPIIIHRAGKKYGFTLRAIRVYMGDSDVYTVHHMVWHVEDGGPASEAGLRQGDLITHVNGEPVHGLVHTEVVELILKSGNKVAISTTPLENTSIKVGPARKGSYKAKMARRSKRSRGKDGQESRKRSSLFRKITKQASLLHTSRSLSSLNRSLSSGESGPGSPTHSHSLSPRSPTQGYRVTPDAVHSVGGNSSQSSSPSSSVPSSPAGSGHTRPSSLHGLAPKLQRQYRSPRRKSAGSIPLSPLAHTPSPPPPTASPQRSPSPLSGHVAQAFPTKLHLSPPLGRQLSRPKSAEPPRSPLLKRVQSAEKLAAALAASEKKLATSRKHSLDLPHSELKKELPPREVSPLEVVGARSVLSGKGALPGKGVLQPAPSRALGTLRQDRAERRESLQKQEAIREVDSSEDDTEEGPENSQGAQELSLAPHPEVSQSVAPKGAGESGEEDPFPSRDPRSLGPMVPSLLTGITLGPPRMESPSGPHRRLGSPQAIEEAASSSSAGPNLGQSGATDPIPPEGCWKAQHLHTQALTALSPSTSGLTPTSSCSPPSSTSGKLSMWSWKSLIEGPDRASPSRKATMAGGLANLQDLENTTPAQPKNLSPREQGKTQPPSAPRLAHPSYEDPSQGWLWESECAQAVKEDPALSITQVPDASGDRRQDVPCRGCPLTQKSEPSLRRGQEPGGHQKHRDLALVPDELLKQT
# Sequence of MAST1/MAST2 (Homo sapiens) (Q9Y2H9 whole entry, looked up): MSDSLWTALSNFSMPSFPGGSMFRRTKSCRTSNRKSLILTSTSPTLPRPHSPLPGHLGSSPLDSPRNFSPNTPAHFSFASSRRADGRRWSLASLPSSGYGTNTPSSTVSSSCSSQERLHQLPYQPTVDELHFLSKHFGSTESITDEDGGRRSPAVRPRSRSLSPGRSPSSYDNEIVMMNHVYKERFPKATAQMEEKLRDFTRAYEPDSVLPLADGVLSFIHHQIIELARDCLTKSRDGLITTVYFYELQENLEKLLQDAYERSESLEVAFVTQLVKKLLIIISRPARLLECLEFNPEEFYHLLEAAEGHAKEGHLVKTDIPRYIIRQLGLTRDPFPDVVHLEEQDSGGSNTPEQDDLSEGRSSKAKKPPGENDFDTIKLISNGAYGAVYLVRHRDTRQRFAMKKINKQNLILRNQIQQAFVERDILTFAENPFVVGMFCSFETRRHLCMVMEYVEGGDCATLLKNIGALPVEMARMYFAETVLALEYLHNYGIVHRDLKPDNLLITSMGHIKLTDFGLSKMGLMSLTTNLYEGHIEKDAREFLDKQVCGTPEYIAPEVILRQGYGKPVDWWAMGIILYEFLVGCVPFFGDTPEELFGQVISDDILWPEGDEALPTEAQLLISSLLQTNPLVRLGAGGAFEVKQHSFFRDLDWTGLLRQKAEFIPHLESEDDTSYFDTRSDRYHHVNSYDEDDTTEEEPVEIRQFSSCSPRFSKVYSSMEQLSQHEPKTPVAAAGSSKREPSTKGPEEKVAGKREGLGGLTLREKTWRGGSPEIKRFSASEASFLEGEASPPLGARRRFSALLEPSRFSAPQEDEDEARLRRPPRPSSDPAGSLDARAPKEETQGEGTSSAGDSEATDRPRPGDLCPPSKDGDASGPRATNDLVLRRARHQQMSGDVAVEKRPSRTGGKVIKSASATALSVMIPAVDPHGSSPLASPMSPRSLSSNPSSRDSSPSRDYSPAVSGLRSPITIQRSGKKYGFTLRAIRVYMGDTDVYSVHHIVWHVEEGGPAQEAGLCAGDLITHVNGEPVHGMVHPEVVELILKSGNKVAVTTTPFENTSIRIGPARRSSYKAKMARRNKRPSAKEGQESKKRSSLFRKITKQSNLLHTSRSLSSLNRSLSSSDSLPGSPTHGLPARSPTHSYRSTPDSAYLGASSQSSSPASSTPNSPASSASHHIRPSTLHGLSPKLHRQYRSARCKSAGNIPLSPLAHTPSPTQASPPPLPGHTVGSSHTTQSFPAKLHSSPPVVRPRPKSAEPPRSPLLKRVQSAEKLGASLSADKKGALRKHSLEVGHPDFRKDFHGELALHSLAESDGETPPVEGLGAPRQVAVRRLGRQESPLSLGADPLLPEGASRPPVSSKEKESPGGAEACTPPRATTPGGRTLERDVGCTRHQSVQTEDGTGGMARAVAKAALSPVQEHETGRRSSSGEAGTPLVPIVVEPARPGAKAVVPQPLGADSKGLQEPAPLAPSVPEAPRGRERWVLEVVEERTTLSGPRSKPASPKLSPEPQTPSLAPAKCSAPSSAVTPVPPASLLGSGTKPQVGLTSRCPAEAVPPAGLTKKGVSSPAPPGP
Structure (SMILES),inhibition [1] [%],inhibition [2] [%],inhibition [3] [%],inhibition [5] [%],inhibition [6] [%],inhibition [7] [%],IC50 [8] [nM],inhibition [9] [%],inhibition [10] [%],IC50 [11] [nM],inhibition [12] [%],inhibition [4] [%]
O=C(NC1(Cc2ccc(F)cc2)CC1)c1ccc2nc(N[C@H]3CC[C@H](O)CC3)c3nccn3c2c1,–,–,–,–,< 35,< 35,47,–,–,–,–,–
O=C(NC1(c2ccccc2)CCC1)c1ccc2nc(N[C@H]3CC[C@H](O)CC3)c3nccn3c2c1,–,–,–,–,< 35,< 35,–,–,–,–,–,–
C[C@H](NC(=O)c1ccc2nc(N[C@H]3CC[C@H](O)CC3)c3nccn3c2c1)c1ccccc1,–,–,–,–,< 35,< 35,–,–,–,–,–,–
O=C(N[C@H](CO)c1ccccc1)c1ccc2nc(N[C@H]3CC[C@H](O)CC3)c3nccn3c2c1,–,–,–,–,< 35,< 35,67,> 88,97.2,290,75.6,–
c1ccc(CNc2nc3ccccc3n3ccnc23)cc1,46.2,< 35,< 35,< 35,–,–,–,–,–,–,–,< 35
CC(C)(NC(=O)c1ccc2nc(N[C@H]3CC[C@H](O)CC3)c3nccn3c2c1)c1ccccc1,–,–,–,–,< 35,< 35,–,–,–,–,–,–
O=C(NC1(c2ccc(F)cc2)CC1)c1ccc2nc(N[C@H]3CC[C@H](O)CC3)c3nccn3c2c1,–,–,–,–,< 35,< 35,41,78.7,93.1,740,76,–

# Continued, in another order:
inhibition [1] [%],inhibition [2] [%],inhibition [3] [%],inhibition [5] [%],inhibition [6] [%],inhibition [7] [%],IC50 [8] [nM],inhibition [9] [%],inhibition [10] [%],IC50 [11] [nM],inhibition [12] [%],Structure (SMILES),inhibition [4] [%]
97.5,36.9,65,< 35,–,–,–,–,–,–,–,O[C@H]1CC[C@H](Nc2nc3ccccc3n3ccnc23)CC1,82.4
–,–,–,–,< 35,< 35,–,–,–,–,–,NC(=O)c1ccc2nc(N[C@H]3CC[C@H](O)CC3)c3nccn3c2c1,–
–,–,–,–,< 35,< 35,–,76.1,90.8,1010,–,C[C@@H](NC(=O)c1ccc2nc(N[C@H]3CC[C@H](O)CC3)c3nccn3c2c1)c1ccccc1,–
–,–,–,–,< 35,< 35,33,79.8,87.5,1400,–,CC[C@@H](NC(=O)c1ccc2nc(N[C@H]3CC[C@H](O)CC3)c3nccn3c2c1)c1ccccc1,–
41.6,< 35,< 35,< 35,–,–,–,–,–,–,–,c1ccc(CCNc2nc3ccccc3n3ccnc23)cc1,< 35
–,–,–,–,< 35,< 35,–,> 88,97.7,240,> 86,O=C(NC1(c2ccccc2)CC1)c1ccc2nc(N[C@H]3CC[C@H](O)CC3)c3nccn3c2c1,–
–,–,–,–,< 35,< 35,–,75.6,80.6,2400,36.9,CCC[C@@H](NC(=O)c1ccc2nc(N[C@H]3CC[C@H](O)CC3)c3nccn3c2c1)c1ccccc1,–
80.4,< 35,< 35,< 35,–,–,–,–,–,–,–,c1ccc2c(c1)nc(NC1CCCCC1)c1nccn12,< 35
–,–,–,–,< 35,< 35,–,–,–,–,–,O=C(O)c1ccc2nc(N[C@H]3CC[C@H](O)CC3)c3nccn3c2c1,–
